Assay results as given in patent US20200131227A1, “POLYPEPTIDE WITH TUMOUR BINDING ACTIVITY” (RUPRECHT-KARLS-UNIVERSITÄT HEIDELBERG, priority 2017, published 2020).
Where a SMILES comes first, the peptide text is derived from it. Bridges are numbered along the chain shown (N, C = ends). The star is where a group is joined. DOTA = O=C(O)CN1CCN(CC(=O)O)CCN(CC(=O)*)CCN(CC(=O)O)CC1

How the values were obtained:
ITGαvβ3 = ITGαvβ3 (Homo sapiens, UniProt P05106+P06756); test: Surface plasmon resonance assay (SPR), ITGαvβ3; assay type: binding
Chain of ITGαvβ3 (P06756 31-992 limits assumed): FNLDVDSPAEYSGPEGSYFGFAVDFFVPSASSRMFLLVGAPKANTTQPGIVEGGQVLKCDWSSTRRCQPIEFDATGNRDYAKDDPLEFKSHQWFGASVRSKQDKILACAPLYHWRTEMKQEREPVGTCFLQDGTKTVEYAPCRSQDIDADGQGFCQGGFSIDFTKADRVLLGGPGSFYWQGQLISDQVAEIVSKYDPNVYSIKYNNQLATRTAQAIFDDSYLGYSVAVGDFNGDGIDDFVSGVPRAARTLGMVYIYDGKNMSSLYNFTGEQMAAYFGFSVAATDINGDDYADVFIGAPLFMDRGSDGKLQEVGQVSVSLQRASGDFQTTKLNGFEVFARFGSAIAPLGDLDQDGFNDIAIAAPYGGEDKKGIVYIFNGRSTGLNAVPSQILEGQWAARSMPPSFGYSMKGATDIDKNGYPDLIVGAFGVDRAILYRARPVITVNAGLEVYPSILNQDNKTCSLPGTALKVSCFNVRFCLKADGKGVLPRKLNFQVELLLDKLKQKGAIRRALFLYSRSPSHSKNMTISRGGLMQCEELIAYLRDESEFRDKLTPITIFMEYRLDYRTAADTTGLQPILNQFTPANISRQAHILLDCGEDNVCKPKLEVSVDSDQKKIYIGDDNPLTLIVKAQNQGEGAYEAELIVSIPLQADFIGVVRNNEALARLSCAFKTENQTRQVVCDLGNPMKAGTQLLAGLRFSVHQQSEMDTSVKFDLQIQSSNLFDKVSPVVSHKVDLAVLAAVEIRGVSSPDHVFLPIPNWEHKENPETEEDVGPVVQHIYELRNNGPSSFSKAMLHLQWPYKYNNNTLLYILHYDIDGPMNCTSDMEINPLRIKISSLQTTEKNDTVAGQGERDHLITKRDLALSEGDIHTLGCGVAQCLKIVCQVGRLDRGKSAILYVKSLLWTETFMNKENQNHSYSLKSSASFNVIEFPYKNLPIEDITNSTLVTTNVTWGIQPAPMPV
Chain of ITGαvβ3 (P05106 27-718 limits assumed): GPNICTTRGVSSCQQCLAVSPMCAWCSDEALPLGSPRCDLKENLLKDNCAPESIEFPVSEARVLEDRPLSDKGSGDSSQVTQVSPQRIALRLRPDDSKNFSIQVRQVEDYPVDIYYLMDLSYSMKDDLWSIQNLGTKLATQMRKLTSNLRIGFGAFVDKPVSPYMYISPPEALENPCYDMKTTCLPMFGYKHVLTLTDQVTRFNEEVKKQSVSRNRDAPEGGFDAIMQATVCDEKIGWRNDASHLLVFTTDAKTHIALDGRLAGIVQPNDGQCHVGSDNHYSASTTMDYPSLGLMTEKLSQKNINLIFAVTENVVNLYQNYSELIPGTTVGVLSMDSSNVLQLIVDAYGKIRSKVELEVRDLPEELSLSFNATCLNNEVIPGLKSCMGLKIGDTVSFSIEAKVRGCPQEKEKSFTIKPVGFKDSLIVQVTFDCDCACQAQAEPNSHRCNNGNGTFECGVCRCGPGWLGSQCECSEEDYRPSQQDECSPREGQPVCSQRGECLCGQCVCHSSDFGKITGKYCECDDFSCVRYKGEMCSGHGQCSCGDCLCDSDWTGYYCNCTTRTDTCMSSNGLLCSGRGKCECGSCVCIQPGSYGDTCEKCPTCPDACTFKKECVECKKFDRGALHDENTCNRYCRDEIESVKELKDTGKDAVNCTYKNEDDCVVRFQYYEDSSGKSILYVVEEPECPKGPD
Procedure: (§1) Assessment of the binding affinity was performed on a BiaCore X100 (GE Healthcare). To avoid denaturation of the heterodimer during amide activation ITGαvβ6 and ITGαvβ3, respectively, were used as analytes and SFITGv6 was immobilized at its N-terminus on a C1 sensor Chip (BR-1005-35, GE Healthcare) using a manual amine coupling protocol. Briefly, after activation of the sensor chip surface with a solution of EDC 0.4 M/NHS 0.1 M for 5 min a 100 μM peptide dissolved in HBS-EP running buffer (0.1 M HEPES, 30 mM EDTA, 1.5 M NaCl, 0.5% surfactant P20, pH 7.2) was immobilized with a contact time of 30 sec until a loading level of 18 response units (RU) was obtained. […] The SPR-sensogram data were evaluated with the BiaCore evaluation software. The dissociation constant (KD) was determined by a 1:1 Langmuir model fit of the SPR-sensograms.
as §1, with “SFLAP3” for “peptide”, “to obtain” for “until”, “12” for “18”, “(RU).” for “(RU) was obtained.”, “SPR sensogram” for “SPR-sensogram”, “SPR sensograms.” for “SPR-sensograms.”

[1] = test system: brain metastases derived from breast cancer and NSCLC; test: Histochemical peptide staining of brain metastases; design: species or system human
Procedure: Staining with the biotinylated PEG(12)-SFITGv6 peptide was performed on acetone-fixed cryosections (5 μm) of tumor tissues after blocking of unspecific binding using the Avidin/Biotin Blocking Kit (SP-2001, Vector Laboratories). A stock solution of the lyophilized peptide was prepared by dilution in 5% aqueous DMSO. Slices were incubated overnight at 4° C. with 10^-5 M peptide concentration in antibody diluent (DAKO). Detection of bound peptide was carried out with the Vectastain Elite ABC Kit (PK-6100, Vector Laboratories) according to manufacturer's protocol. Peptide specificity was ensured by a scrambled (GRD) PEG(12)-SFITGv6 derivate, the somatostatin receptor ligand DOTATOC and negative controls (without peptide or primary antibody) Staining results were assessed by bright field microscopy (BX50) with the SC30 camera and the cell Sense software (all Olympus).

ITGαvβ6 = ITGαvβ6 (Homo sapiens, UniProt P06756+P18564); test: Surface plasmon resonance assay (SPR), ITGαvβ6; assay type: binding; conditions: peptide immobilized, integrin as analyte, 1:1 Langmuir fit
Procedure: as §1
Assessment of the binding affinity was performed on a BiaCore X100 (GE Healthcare). To avoid denaturation of the heterodimer during amide activation ITGαvβ6 and ITGαvβ3, respectively, were used as analytes and SFITGv6 was immobilized at its N-terminus on a C1 sensor Chip (BR-1005-35, GE Healthcare) using a manual amine coupling protocol. […] The SPR sensogram data were evaluated with the BiaCore evaluation software. The dissociation constant (KD) was determined by a 1:1 Langmuir model fit of the SPR sensograms.

HNO223 cells = test: In vitro binding on HNO223 cells; assay type: cell-based, human; conditions: Example 2, 10 min to 480 min (FIG. 16)
Procedure: For binding studies, 2.5×10^5 to 4×10^5 cells were seeded in 6-well plates and cultivated for 48 hours. Cells were incubated for 60 min with 1 mL serum-free medium containing the ^125I-labeled peptide (see above). For competition experiments, cells were simultaneously exposed to unlabeled (10^-4 M to 10^-10 M) and ^125I-labeled peptides. After three washing steps with PBS (pH 7.4) the cells were lysed with 0.5 mL of 0.3 M NaOH. Experiments concerning the internalization, kinetics and efflux were additionally performed with ^177Lu-DOTA-SFITGv6. […] To continue with the efflux experiment radioactive medium was replaced by non-radioactive medium and cells were incubated again for 60 to 240 min before measuring radioactivity of the cell lysates and the medium. […] Radioactivity was determined in a gamma counter and calculated as percentage of the applied dose per 1×10^6 cells. […]
For the assessment of the peptide binding capacity in vitro, 2.5-4×10^5 cells were seeded into 6-well plates and cultivated for 48 h. ^125I-labeled peptide resuspended in 1 mL serum-free medium was added and incubated for either 10 min or 60 min with or without different concentrations of unlabeled peptide (10^−4-10^−11 M). […] The internalization was assessed after exposure of the cells to ^177Lu-DOTA-labeled peptides for 10, 30, 60, 120, and 240 min at 37° C. […]

HNO97 cells = test: In vitro binding, kinetics, internalization and efflux on HNO97 cells; assay type: cell-based, human
Procedure: For binding studies, 2.5×10^5 to 4×10^5 cells were seeded in 6-well plates and cultivated for 48 hours. Cells were incubated for 60 min with 1 mL serum-free medium containing the ^125I-labeled peptide (see above). For competition experiments, cells were simultaneously exposed to unlabeled (10^-4 M to 10^-10 M) and ^125I-labeled peptides. After three washing steps with PBS (pH 7.4) the cells were lysed with 0.5 mL of 0.3 M NaOH. Experiments concerning the internalization, kinetics and efflux were additionally performed with ^177Lu-DOTA-SFITGv6. To evaluate kinetics and efflux HNO97 cells were incubated for different time intervals (10 min to 480 min) and 60 min, respectively, with ^177Lu-DOTA-SFITGv6 and lysed as described. To continue with the efflux experiment radioactive medium was replaced by non-radioactive medium and cells were incubated again for 60 to 240 min before measuring radioactivity of the cell lysates and the medium. For internalization experiments the cells were exposed to ^177Lu-DOTA-SFITGv6 for different time intervals (10 to 240 min) at 37° C. and 4° C. After three washing steps with PBS the cells were incubated with 1 mL of glycine-HCl 50 mmol/L in PBS (pH 2.8) for 10 min at RT to remove the surface bound activity. Then, cells were washed with 3 mL of ice-cold PBS and lysed as described. Radioactivity was determined in a gamma counter and calculated as percentage of the applied dose per 1×10^6 cells. Experiments were performed three times, and three repetitions per independent experiment were acquired.
For the assessment of the peptide binding capacity in vitro, 2.5-4×10^5 cells were seeded into 6-well plates and cultivated for 48 h. ^125I-labeled peptide resuspended in 1 mL serum-free medium was added and incubated for either 10 min or 60 min with or without different concentrations of unlabeled peptide (10^−4-10^−11 M). Afterwards, cell monolayers were washed three times with 1 mL phosphate-buffered saline (pH 7.4) to remove unbound peptide and the cells were harvested with 1.4 mL lysis buffer (0.3 M NaOH). To evaluate kinetic properties the cells were exposed to ^177Lu-DOTA-labeled peptides for 10, 30, 60, 120, and 240 min, respectively, and lysed as described. For the efflux experiments the cells were incubated with ^177Lu-DOTA-labeled peptides for 60 min. Thereafter, radioactive medium was replaced by non-radioactive medium and cell monolayers were incubated for additional 60, 120, and 240 min and afterwards lysed as described earlier. The internalization was assessed after exposure of the cells to ^177Lu-DOTA-labeled peptides for 10, 30, 60, 120, and 240 min at 37° C. Unspecifically bound peptide was removed from the surface by incubation with 1 M glycine-HCl solution (pH 2.2) for 10 min. The monolayer cell was rinsed with PBS and cells were lysed as described before. Radioactivity was determined in a y-counter and calculated as percentage of the applied dose per 1×10^6 cells. Experiments were performed three times, and three repetitions per independent experiment were acquired.

| SMILES | lower affinity for ITGαvβ3 than for ITGαvβ6 (ITGαvβ3; SPR) | Kd (ITGαvβ3; peptide immobilized, integrin as analyte, 1:1 Langmuir fit) | histochemical peptide staining result ([1]; breast cancer BM (NCH640k)) | histochemical peptide staining result ([1]; lung BM (NCH2407)) | Kd (ITGαvβ6) | maximum binding capacity of ^177Lu-DOTA-labeled peptide (kinetics) (HNO223 cells) | internalization (HNO97 cells; % of the total bound peptide, Example 2, within 60 min) | maximum binding capacity of ^177Lu-DOTA-labeled peptide (kinetics) (HNO97 cells; Example 2, 10 min to 480 min (FIG. 16)) | total bound ^177Lu-DOTA-labeled peptide (internalization experiment) (HNO97 cells; Example 2, FIG. 17A, B) |
| --- | --- | --- | --- | --- | --- | --- | --- | --- | --- |
| CSCC[C@@H]1NC(=O)[C@H](CC(C)C)NC(=O)[C@H](CC(=O)O)NC(=O)CNC(=O)[C@H](CCCNC(=N)N)NC(=O)[C@H](Cc2ccccc2)NC(=O)[C@H]([C@@H](C)O)NC(=O)[C@@H](NC(=O)[C@H](CCCNC(=N)N)NC(=O)CN)CSSC[C@@H](C(=O)N[C@@H](Cc2ccc(O)cc2)C(=O)N2CCC[C@H]2C(=O)N[C@@H](CC(=O)O)C(=O)O)NC(=O)[C@H](CC(C)C)NC(=O)[C@H](CCC(N)=O)NC1=O [SFITGv6, NH2-G-R-C1-T-F-R-G-D-L-M-Q-L-C1-Y-P-D-COOH] (H-GRCTFRGDLMQLCYPD-OH; disulfide 3-13) | ten-fold lower affinity | 185 ± 0.8 nM | moderate but distinct tumor cell staining | very strong tumor-specific staining pattern | 14.8 ± 26 nM | – | – | – | – |
| CC(C)C[C@@H]1NC(=O)[C@H](CC(=O)O)NC(=O)CNC(=O)[C@H](CCCNC(=N)N)NC(=O)CNC(=O)[C@H]([C@@H](C)O)NC(=O)[C@@H](NC(=O)[C@H](CCCNC(=N)N)NC(=O)CNC(=O)CN2CCN(CC(=O)O)CCN(CC(=O)O)CCN(CC(=O)O)CC2)CSSC[C@@H](C(=O)N[C@@H](Cc2ccc(O)cc2)C(=O)N2CCC[C@H]2C(=O)N[C@@H](CC(=O)O)C(N)=O)NC(=O)[C@H](CC(C)C)NC(=O)[C@H](CCCNC(=N)N)NC(=O)CNC1=O [^177Lu-DOTA-SFLAP3, metal not drawn] ({DOTA}-GRCTGRGDLGRLCYPD-NH2; disulfide 3-13; N-terminus and C-terminus assumed) | – | – | – | – | – | 9.66% | 60% | 18.5% | 11.14% |
